Laboratory results taken from PubChem BioAssay AID493146 (Sanford-Burnham Center for Chemical Genomics, 2011).
Active and inactive are the calls of the source. How the calls were made is not given here.

target: intestinal alkaline phosphatase (Alpi), Mus musculus; experiment: activators of mouse IAP enzyme, SAR follow-up, biochemical, luminescence (AID 493146); conditions: purified mouse IAP, luminescent substrate, activation

| EC50 | Structure (SMILES) |
| --- | --- |
| > 100 µM (inactive) | Cc1ccc(Cl)cc1NC(=O)CSc1sc2c(O)cc(=O)[nH]c2c1C#N |
| > 100 µM (inactive) | CC(C)NC(=O)CSc1sc2c(O)cc(=O)[nH]c2c1C#N |
| > 100 µM (inactive) | Cc1ccc(NC(=O)CCNS(=O)(=O)c2ccc3[nH]c(=O)oc3c2)cc1F |
| > 100 µM (inactive) | CC(C)C(C(=O)NC1CCS(=O)(=O)C1)N1C(=O)/C(=C\c2ccco2)SC1=S (stereo not given) |
| > 100 µM (inactive) | CCN(C(=O)C(C)N1C(=O)/C(=C/c2ccco2)SC1=S)C1CCS(=O)(=O)C1 (stereo not given) |
| > 100 µM (inactive) | O=C(CCNS(=O)(=O)c1ccc2[nH]c(=O)oc2c1)Nc1ccccc1 |
| > 100 µM (inactive) | CCN(C(=O)CN1C(=O)/C(=C\c2ccco2)SC1=S)C1CCS(=O)(=O)C1 (stereo not given) |
| > 100 µM (inactive) | O=C(NCCc1ccc(Cl)cc1)C1CCCN(S(=O)(=O)c2ccc3[nH]c(=O)oc3c2)C1 (stereo not given) |
| > 100 µM (inactive) | O=C(N/N=C/C1CC2CCC1C2)c1cc(O)c(O)c(O)c1 (stereo not given) |
| 37.7 µM | COc1ccc(NC(=S)NCCC(c2ccccc2)c2ccccc2)cc1 |
| > 100 µM (inactive) | COc1cc([N+](=O)[O-])ccc1NC(=S)NCCC(c1ccccc1)c1ccccc1 |
| > 100 µM (inactive) | COc1cccc(CNC(=O)CCNS(=O)(=O)c2ccc3[nH]c(=O)oc3c2)c1 |
| > 100 µM (inactive) | O=C(CN1C(=O)/C(=C/c2ccco2)SC1=S)NC1CCS(=O)(=O)C1 (stereo not given) |
| > 100 µM (inactive) | COc1cc(Cl)c(C)cc1NC(=O)CSc1sc2c(O)cc(=O)[nH]c2c1C#N |
| > 100 µM (inactive) | O=C(CN1C(=O)/C(=C\c2ccco2)SC1=S)Nc1ccc(C(=O)O)cc1 |
| > 100 µM (inactive) | CC(C(=O)Nc1ccccc1C(=O)O)N1C(=O)/C(=C\c2ccco2)SC1=S (stereo not given) |
| > 100 µM (inactive) | COc1ccc(CNC(=O)CSc2sc3c(O)cc(=O)[nH]c3c2C#N)cc1 |
| > 100 µM (inactive) | COc1cc(C(=O)NNC(=S)NC(=O)c2ccc(Cl)cc2)cc(OC)c1OC |
| > 100 µM (inactive) | O=C(NNC(=O)c1cc(O)c(O)c(O)c1)NC1CCCCC1 |
| > 100 µM (inactive) | COC(=O)NNC(=O)c1cc(OC)c(OC)c(OC)c1 |
| > 100 µM (inactive) | COc1ccccc1CNC(=O)CCNS(=O)(=O)c1ccc2[nH]c(=O)oc2c1 |
| > 100 µM (inactive) | O=C(CN1C(=O)/C(=C\c2ccco2)SC1=S)Nc1ccccc1C(=O)O |
| > 100 µM (inactive) | N#Cc1c(SCC(=O)Nc2nc3ccccc3s2)sc2c(O)cc(=O)[nH]c12 |
| > 100 µM (inactive) | Cc1ccc(/C=C2\SC(=S)N(C3CCS(=O)(=O)C3)C2=O)o1 (stereo not given) |
| > 100 µM (inactive) | O=C(CCN1C(=O)/C(=C/c2ccco2)SC1=S)Nc1ccc(O)cc1C(=O)O |
